Test results reported in PubChem BioAssay (NCI).
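Grown in 96-well plates, cells were treated for 48 hours with each compound at five concentrations. Insufficient inhibition: endpoint recorded as highest concentration tested. GI50 marks 50% less growth. At the TGI there is no net growth.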

Assays:
Assay in all cases: NCI tumour cell line growth inhibition, 48 h
[1] = tested on: 786-0 renal
[2] = tested on: LOX IMVI melanoma
[3] = tested on: NCI/ADR-RES ovarian
[4] = tested on: COLO 205 colon
[5] = tested on: NCI-H522 lung
[6] = tested on: RPMI-8226 leukemia
[7] = tested on: SW-620 colon
[8] = tested on: OVCAR-4 ovarian
[9] = tested on: SN12C renal
[10] = tested on: MDA-MB-231 breast
[11] = tested on: HCC-2998 colon
[12] = tested on: MCF7 breast
[13] = tested on: PC-3 prostate
[14] = tested on: CAKI-1 renal
[15] = tested on: HOP-92 NSCLC
[16] = tested on: OVCAR-8 ovarian
[17] = tested on: BT-549 breast
[18] = tested on: DU-145 prostate
[19] = tested on: ACHN renal
[20] = tested on: SK-OV-3 ovarian
[21] = tested on: T-47D breast
[22] = tested on: MDA-MB-435
[23] = tested on: NCI-H23 lung
[24] = tested on: MALME-3M melanoma
[25] = tested on: UACC-257 melanoma
[26] = tested on: SF-268 CNS
[27] = tested on: U251 CNS
[28] = tested on: KM12 colon
[29] = tested on: SNB-19 CNS
[30] = tested on: SK-MEL-2 melanoma
[31] = tested on: EKVX NSCLC
[32] = tested on: HCT-15 colon
[33] = tested on: SF-295 CNS
[34] = tested on: HOP-62 NSCLC
[35] = tested on: A498 renal
[36] = tested on: OVCAR-3 ovarian
[37] = tested on: RXF 393 renal
[38] = tested on: SF-539 CNS
[39] = tested on: NCI-H460 lung
[40] = tested on: HCT-116 colon
[41] = tested on: TK-10 renal
[42] = tested on: K-562 leukemia
[43] = tested on: UACC-62 melanoma
[44] = tested on: SNB-75 CNS
[45] = tested on: UO-31 renal
[46] = tested on: CCRF-CEM leukemia
[47] = tested on: SK-MEL-28 melanoma
[48] = tested on: MOLT-4 leukemia
[49] = tested on: HS 578T breast
[50] = tested on: OVCAR-5 ovarian
[51] = tested on: IGROV1 ovarian
[52] = tested on: HL-60(TB) leukemia
[53] = tested on: M14 melanoma
[54] = tested on: A549 NSCLC
[55] = tested on: NCI-H226 lung
[56] = tested on: SK-MEL-5 melanoma
[57] = tested on: SR leukemia
[58] = tested on: HT29 colon

CC(=O)Nc1ccc(/C=C/C(=O)c2ccccc2)cc1
GI50 [1]: 23.9 µM
TGI [1]: 53.4 µM
GI50 [2]: 4.71 µM
TGI [2]: 18.9 µM
GI50 [3]: 17.4 µM
TGI [3]: 73.1 µM
GI50 [4]: 14.8 µM
TGI [4]: 28 µM
GI50 [5]: 6.85 µM
TGI [5]: 23.2 µM
GI50 [6]: 3.69 µM
TGI [6]: 17.8 µM
GI50 [7]: 4.32 µM
TGI [7]: 17.1 µM
GI50 [8]: 17.2 µM
TGI [8]: 45.1 µM
GI50 [9]: 12.9 µM
TGI [9]: 29.5 µM
GI50 [10]: 17.7 µM
TGI [10]: 44.6 µM
GI50 [11]: 15.5 µM
TGI [11]: 29.7 µM
GI50 [12]: 3.5 µM
TGI [12]: 13.9 µM
GI50 [13]: 23.2 µM
TGI [13]: 66.2 µM
GI50 [14]: 3.77 µM
TGI [14]: 16.2 µM
GI50 [15]: 17.9 µM
TGI [15]: 51.1 µM
GI50 [16]: 12.3 µM
TGI [16]: 30.4 µM
GI50 [17]: 20.1 µM
TGI [17]: 41.2 µM
GI50 [18]: 3.13 µM
TGI [18]: 10.6 µM
GI50 [19]: 13.1 µM
TGI [19]: 29.6 µM
GI50 [20]: 27.1 µM
TGI [20]: 96 µM
GI50 [21]: 13.8 µM
TGI [21]: 42.3 µM
GI50 [22]: 17.4 µM
TGI [22]: 50.5 µM
GI50 [23]: 17.5 µM
TGI [23]: 43.2 µM
GI50 [24]: 16.7 µM
TGI [24]: 36.9 µM
GI50 [25]: 20.7 µM
TGI [25]: 54.7 µM
GI50 [26]: 15.9 µM
TGI [26]: 37.5 µM
GI50 [27]: 4.61 µM
TGI [27]: 17.7 µM
GI50 [28]: 4.47 µM
TGI [28]: 16 µM
GI50 [29]: 13.5 µM
TGI [29]: 34.1 µM
GI50 [30]: 19.7 µM
TGI [30]: 35.5 µM
GI50 [31]: 16.6 µM
TGI [31]: 33.6 µM
GI50 [32]: 7.54 µM
TGI [32]: 37.4 µM
GI50 [33]: 14.4 µM
TGI [33]: 31.7 µM
GI50 [34]: 14.8 µM
TGI [34]: 29.3 µM
GI50 [35]: 15.9 µM
TGI [35]: 36.7 µM
GI50 [36]: 7.41 µM
TGI [36]: 20.1 µM
GI50 [37]: 13.9 µM
TGI [37]: 27.5 µM
GI50 [38]: 14 µM
TGI [38]: 32.9 µM
GI50 [39]: 17.6 µM
TGI [39]: 41.6 µM
GI50 [40]: 3.98 µM
TGI [40]: 15.5 µM
GI50 [41]: 14.6 µM
TGI [41]: 29.8 µM
GI50 [42]: 3.28 µM
TGI [42]: > 100 µM
GI50 [43]: 17.8 µM
TGI [43]: 39.2 µM
GI50 [44]: 18.2 µM
TGI [44]: 42.2 µM
GI50 [45]: 5.3 µM
TGI [45]: 21.2 µM
GI50 [46]: 3.36 µM
TGI [46]: 16.6 µM
GI50 [47]: 20.5 µM
TGI [47]: 44.2 µM
GI50 [48]: 5.55 µM
TGI [48]: 68.4 µM
GI50 [49]: 5.97 µM
TGI [49]: 43.3 µM
GI50 [50]: 18.3 µM
TGI [50]: 45.3 µM
GI50 [51]: 9.44 µM
TGI [51]: 30.6 µM
GI50 [52]: 24.8 µM
TGI [52]: 81.2 µM
GI50 [53]: 16 µM
TGI [53]: 33.3 µM
GI50 [54]: 20.5 µM
TGI [54]: 45.4 µM
GI50 [55]: 27.9 µM
TGI [55]: > 100 µM
GI50 [56]: 16.2 µM
TGI [56]: 30.3 µM
GI50 [57]: 3.24 µM
TGI [57]: 22 µM
GI50 [58]: 8.29 µM
TGI [58]: 24.9 µM
